{"source": "ChEMBL document CHEMBL1201862", "about": "“PubChem BioAssay data set” (2004)", "experiment_in_all_cases": "NCI anticancer screen, dose series, 48 h", "key": {"[1]": {"system": "HT-29"}, "[2]": {"system": "SK-MEL-28"}, "[3]": {"system": "OVCAR-4"}, "[4]": {"system": "HOP-18"}, "[5]": {"system": "HCT-15"}, "[6]": {"system": "A498"}, "[7]": {"system": "SK-OV-3"}, "[8]": {"system": "DMS-114"}, "[9]": {"system": "HOP-92"}, "[10]": {"system": "A549"}, "[11]": {"system": "SNB-19"}, "[12]": {"system": "ACHN"}, "[13]": {"system": "K562"}, "[14]": {"system": "SK-MEL-2"}, "[15]": {"system": "UACC-257"}, "[16]": {"system": "UACC-62"}, "[17]": {"system": "EKVX"}, "[18]": {"system": "SF-539"}, "[19]": {"system": "NCI-H522"}, "[20]": {"system": "LOX IMVI"}, "[21]": {"system": "SN12C"}, "[22]": {"system": "MOLT-4"}, "[23]": {"system": "M19-MEL"}, "[24]": {"system": "NCI-H226"}, "[25]": {"system": "UO-31"}, "[26]": {"system": "CAKI-1"}, "[27]": {"system": "786-0"}, "[28]": {"system": "HCT-116"}, "[29]": {"system": "CCRF-CEM"}, "[30]": {"system": "IGROV-1"}, "[31]": {"system": "OVCAR-8"}, "[32]": {"system": "SF-295"}, "[33]": {"system": "SNB-78"}, "[34]": {"system": "M14"}, "[35]": {"system": "SK-MEL-5"}, "[36]": {"system": "SNB-75"}, "[37]": {"system": "DMS-273"}, "[38]": {"system": "NCI-H23"}, "[39]": {"system": "OVCAR-5"}, "[40]": {"system": "NCI-H460"}, "[41]": {"system": "LXFL 529"}, "[42]": {"system": "TK-10"}, "[43]": {"system": "KM12"}, "[44]": {"system": "SW-620"}, "[45]": {"system": "SF-268"}, "[46]": {"system": "HCC 2998"}, "[47]": {"system": "RXF 393"}, "[48]": {"system": "OVCAR-3"}, "[49]": {"system": "U-251"}, "[50]": {"system": "DLD-1"}, "[51]": {"system": "KM-20L2"}, "[52]": {"system": "COLO 205"}, "[53]": {"system": "Malme-3M"}, "[54]": {"system": "RPMI-8226"}}, "note": "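Interpolation was linear, between the two tested concentrations surrounding the appropriate level; five concentrations were tested over 48 hours in 96-well plates. GI50 marks 50% less growth.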 Active and inactive are the calls of the source. Rule as the data show it: active = GI50 up to about 1.1 µM and inactive = higher."}
{"smiles": "N#CC1(Cc2ccccc2[N+](=O)[O-])c2ccccc2C2C(N1C(=O)c1ccccc1)C2(Cl)Cl", "note": "(stereo not drawn)", "values": [{"measurement": "GI50", "setting": "[1]", "result": "> 100 µM (inactive)"}, {"measurement": "GI50", "setting": "[2]", "result": "> 100 µM (inactive)"}, {"measurement": "GI50", "setting": "[3]", "result": "13.2 µM (inactive)"}, {"measurement": "GI50", "setting": "[4]", "result": "> 100 µM (inactive)"}, {"measurement": "GI50", "setting": "[5]", "result": "> 100", "unit": "µM"}, {"measurement": "GI50", "setting": "[6]", "result": "78 µM (inactive)"}, {"measurement": "GI50", "setting": "[7]", "result": "> 100 µM (inactive)"}, {"measurement": "GI50", "setting": "[8]", "result": "> 100 µM (inactive)"}, {"measurement": "GI50", "setting": "[9]", "result": "> 100 µM (inactive)"}, {"measurement": "GI50", "setting": "[10]", "result": "> 100 µM (inactive)"}, {"measurement": "GI50", "setting": "[11]", "result": "> 100 µM (inactive)"}, {"measurement": "GI50", "setting": "[12]", "result": "13.2 µM (inactive)"}, {"measurement": "GI50", "setting": "[13]", "result": "> 100 µM (inactive)"}, {"measurement": "GI50", "setting": "[14]", "result": "> 100 µM (inactive)"}, {"measurement": "GI50", "setting": "[15]", "result": "> 100 µM (inactive)"}, {"measurement": "GI50", "setting": "[16]", "result": "> 100 µM (inactive)"}, {"measurement": "GI50", "setting": "[17]", "result": "> 100 µM (inactive)"}, {"measurement": "GI50", "setting": "[18]", "result": "> 100 µM (inactive)"}, {"measurement": "GI50", "setting": "[19]", "result": "> 100 µM (inactive)"}, {"measurement": "GI50", "setting": "[20]", "result": "> 100 µM (inactive)"}, {"measurement": "GI50", "setting": "[21]", "result": "> 100 µM (inactive)"}, {"measurement": "GI50", "setting": "[22]", "result": "> 100 µM (inactive)"}, {"measurement": "GI50", "setting": "[23]", "result": "> 100 µM (inactive)"}, {"measurement": "GI50", "setting": "[24]", "result": "> 100 µM (inactive)"}, {"measurement": "GI50", "setting": "[25]", "result": "> 100 µM (inactive)"}, {"measurement": "GI50", "setting": "[26]", "result": "> 100 µM (inactive)"}, {"measurement": "GI50", "setting": "[27]", "result": "> 100 µM (inactive)"}, {"measurement": "GI50", "setting": "[28]", "result": "> 100 µM (inactive)"}, {"measurement": "GI50", "setting": "[29]", "result": "> 100 µM (inactive)"}, {"measurement": "GI50", "setting": "[30]", "result": "> 100 µM (inactive)"}, {"measurement": "GI50", "setting": "[31]", "result": "> 100 µM (inactive)"}, {"measurement": "GI50", "setting": "[32]", "result": "> 100 µM (inactive)"}, {"measurement": "GI50", "setting": "[33]", "result": "77.3 µM (inactive)"}, {"measurement": "GI50", "setting": "[34]", "result": "> 100 µM (inactive)"}, {"measurement": "GI50", "setting": "[35]", "result": "> 100 µM (inactive)"}, {"measurement": "GI50", "setting": "[36]", "result": "52.6 µM (inactive)"}, {"measurement": "GI50", "setting": "[37]", "result": "28.2 µM (inactive)"}, {"measurement": "GI50", "setting": "[38]", "result": "> 100 µM (inactive)"}, {"measurement": "GI50", "setting": "[39]", "result": "> 100 µM (inactive)"}, {"measurement": "GI50", "setting": "[40]", "result": "> 100 µM (inactive)"}, {"measurement": "GI50", "setting": "[41]", "result": "> 100 µM (inactive)"}, {"measurement": "GI50", "setting": "[42]", "result": "> 100 µM (inactive)"}, {"measurement": "GI50", "setting": "[43]", "result": "> 100 µM (inactive)"}, {"measurement": "GI50", "setting": "[44]", "result": "> 100 µM (inactive)"}, {"measurement": "GI50", "setting": "[45]", "result": "> 100 µM (inactive)"}, {"measurement": "GI50", "setting": "[46]", "result": "3.76 µM (inactive)"}, {"measurement": "GI50", "setting": "[47]", "result": "> 100 µM (inactive)"}, {"measurement": "GI50", "setting": "[48]", "result": "> 100 µM (inactive)"}, {"measurement": "GI50", "setting": "[49]", "result": "> 100 µM (inactive)"}, {"measurement": "GI50", "setting": "[50]", "result": "3.6 µM (inactive)"}, {"measurement": "GI50", "setting": "[51]", "result": "7.19 µM (inactive)"}, {"measurement": "GI50", "setting": "[52]", "result": "> 100 µM (inactive)"}, {"measurement": "GI50", "setting": "[53]", "result": "> 100 µM (inactive)"}]}
{"smiles": "c1ccc2c(c1)[nH]c1c2nc2ccccn21", "values": [{"measurement": "GI50", "setting": "[1]", "result": "> 100 µM (inactive)"}, {"measurement": "GI50", "setting": "[2]", "result": "> 100 µM (inactive)"}, {"measurement": "GI50", "setting": "[3]", "result": "> 100 µM (inactive)"}, {"measurement": "GI50", "setting": "[4]", "result": "> 100 µM (inactive)"}, {"measurement": "GI50", "setting": "[5]", "result": "> 100", "unit": "µM"}, {"measurement": "GI50", "setting": "[6]", "result": "> 100 µM (inactive)"}, {"measurement": "GI50", "setting": "[7]", "result": "> 100 µM (inactive)"}, {"measurement": "GI50", "setting": "[8]", "result": "> 100 µM (inactive)"}, {"measurement": "GI50", "setting": "[9]", "result": "> 100 µM (inactive)"}, {"measurement": "GI50", "setting": "[10]", "result": "> 100 µM (inactive)"}, {"measurement": "GI50", "setting": "[11]", "result": "> 100 µM (inactive)"}, {"measurement": "GI50", "setting": "[12]", "result": "> 100 µM (inactive)"}, {"measurement": "GI50", "setting": "[13]", "result": "> 100 µM (inactive)"}, {"measurement": "GI50", "setting": "[15]", "result": "> 100 µM (inactive)"}, {"measurement": "GI50", "setting": "[16]", "result": "> 100 µM (inactive)"}, {"measurement": "GI50", "setting": "[17]", "result": "> 100 µM (inactive)"}, {"measurement": "GI50", "setting": "[22]", "result": "> 100 µM (inactive)"}, {"measurement": "GI50", "setting": "[54]", "result": "> 100 µM (inactive)"}, {"measurement": "GI50", "setting": "[25]", "result": "> 100 µM (inactive)"}, {"measurement": "GI50", "setting": "[26]", "result": "> 100 µM (inactive)"}, {"measurement": "GI50", "setting": "[27]", "result": "> 100 µM (inactive)"}, {"measurement": "GI50", "setting": "[28]", "result": "> 100 µM (inactive)"}, {"measurement": "GI50", "setting": "[30]", "result": "> 100 µM (inactive)"}, {"measurement": "GI50", "setting": "[31]", "result": "> 100 µM (inactive)"}, {"measurement": "GI50", "setting": "[33]", "result": "> 100 µM (inactive)"}, {"measurement": "GI50", "setting": "[34]", "result": "> 100 µM (inactive)"}, {"measurement": "GI50", "setting": "[35]", "result": "> 100 µM (inactive)"}, {"measurement": "GI50", "setting": "[37]", "result": "> 100 µM (inactive)"}, {"measurement": "GI50", "setting": "[38]", "result": "> 100 µM (inactive)"}, {"measurement": "GI50", "setting": "[39]", "result": "> 100 µM (inactive)"}, {"measurement": "GI50", "setting": "[40]", "result": "> 100 µM (inactive)"}, {"measurement": "GI50", "setting": "[41]", "result": "> 100 µM (inactive)"}, {"measurement": "GI50", "setting": "[42]", "result": "69 µM (inactive)"}, {"measurement": "GI50", "setting": "[43]", "result": "> 100 µM (inactive)"}, {"measurement": "GI50", "setting": "[44]", "result": "> 100 µM (inactive)"}, {"measurement": "GI50", "setting": "[45]", "result": "> 100 µM (inactive)"}, {"measurement": "GI50", "setting": "[49]", "result": "> 100 µM (inactive)"}, {"measurement": "GI50", "setting": "[50]", "result": "> 100 µM (inactive)"}, {"measurement": "GI50", "setting": "[51]", "result": "> 100 µM (inactive)"}, {"measurement": "GI50", "setting": "[52]", "result": "> 100 µM (inactive)"}]}
